Experiments:
Format in all cases: biochemical
[1] = target: T1, Tie2 (Homo sapiens, UniProt Q02763); assay: Tie2-Kinase HTRF-Assay without kinase preactivation (assay 2); details: 10 μM ATP, pIC50 = −log IC50 in molar concentration, read-out: Tie 2 activity (assay 2)
T1 construct: A recombinant fusion protein of GST and the intracellular domains of Tie2; GST; made in house; host or cells: insect cells (Hi-5)
From the text: Tie2-inhibitory activity of compounds of the present invention was quantified employing two Tie2 HTRF assay as described in the following paragraphs.
A recombinant fusion protein of GST and the intracellular domains of Tie2, expressed in insect cells (Hi-5) and purified by Glutathion-Sepharose affinity chromatography was used as kinase. Alternatively, commercially available GST-Tie2-fusion protein (Upstate Biotechnology, Dundee, Scotland) can be used as substrate for the kinase reaction the biotinylated peptide biotin-Ahx-EPKDDAYPLYSDFG (C-terminus in amid form) was used which can be purchased e.g. from the company Biosynthan GmbH (Berlin-Buch, Germany). Detection of phosphorylated product is achieved specifically by a trimeric detection complex consisting of the phosphorylated substrate, streptavidin-XLent (SA-XLent) which binds to biotin, and Europium Cryptate-labeled anti-phosphotyrosine antibody PT66 which binds to phosphorylated tyrosine.
Tie2 (3.5 ng/measurement point) was incubated for 60 min at 22° C. in the presence of 10 μM adenosine-tri-phosphate (ATP) and 1 μM substrate peptide (biotin-Ahx-EPKDDAYPLYSDFG-NH2) with different concentrations of test compounds (0 μM and concentrations in the range 0.001-20 μM) in 5 μl assay buffer [50 mM Hepes/NaOH pH 7, 10 mM MgCl2, 0.5 mM MnCl2, 1.0 mM dithiothreitol, 0.01% NP40, protease inhibitor mixture (“Complete w/o EDTA” from Roche, 1 tablet per 2.5 ml), 1% (v/v) dimethylsulfoxide]. The reaction was stopped by the addition of 5 μl of an aqueous buffer (25 mM Hepes/NaOH pH 7.5, 0.28% (w/v) bovine serum albumin) containing EDTA (90 mM) and the HTRF (Homogeneous Time Resolved Fluorescence) detection reagents streptavidine-XLent (0.2 μM, from Cis Biointernational, Marcoule, France) and PT66-Eu-Chelate (0.3 ng/μl; a europium-chelate labelled anti-phospho-tyrosine antibody from Perkin Elmer).
(§1) The resulting mixture was incubated 1 h at 22° C. to allow the binding of the biotinylated phosphorylated peptide to the streptavidine-XLent and the PT66-Eu-Chelate. Subsequently the amount of phosphorylated substrate peptide was evaluated by measurement of the resonance energy transfer from the PT66-Eu-Chelate to the streptavidine-XLent. Therefore, the fluorescence emissions at 620 nm and 665 nm after excitation at 350 nm was measured in a HTRF reader, e.g. a Rubystar (BMG Labtechnologies, Offenburg, Germany) or a Viewlux (Perkin-Elmer). The ratio of the emissions at 665 nm and at […] was taken as the measure for the amount of phosphorylated substrate peptide. The data were normalised (enzyme reaction without inhibitor=0% inhibition, all other assay components but no enzyme=100% inhibition) and IC50 values were calculated by a 4 parameter fit using an inhouse software.

[2] = target: T2, preactivated Tie2 (Homo sapiens, UniProt Q02763); assay: Tie2-Kinase HTRF-Assay with kinase preactivation (assay 3); details: 10 μM ATP, pIC50 = −log IC50 in molar concentration, read-out: Tie 2 activity (assay 3)
T2 construct: A recombinant fusion protein of GST and the intracellular domains of Tie2; GST; made in house; host or cells: insect cells (Hi-5)
T2 sequence (Q02763 770-1124 limits assumed): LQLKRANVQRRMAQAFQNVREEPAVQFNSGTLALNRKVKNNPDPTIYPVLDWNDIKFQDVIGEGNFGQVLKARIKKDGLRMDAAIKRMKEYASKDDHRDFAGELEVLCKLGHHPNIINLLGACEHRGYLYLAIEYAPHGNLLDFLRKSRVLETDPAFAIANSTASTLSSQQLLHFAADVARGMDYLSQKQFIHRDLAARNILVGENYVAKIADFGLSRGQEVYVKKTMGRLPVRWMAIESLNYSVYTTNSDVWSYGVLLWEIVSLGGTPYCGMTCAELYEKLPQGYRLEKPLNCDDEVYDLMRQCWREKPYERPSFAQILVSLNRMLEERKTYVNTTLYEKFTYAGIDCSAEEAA
Protocol: Assay 3: Tie2-Kinase HTRF-Assay with Kinase Preactivation
A recombinant fusion protein of GST and the intracellular domains of Tie2, expressed in insect cells (Hi-5) and purified by Glutathion-Sepharose affinity chromatography was used as kinase. As substrate for the kinase reaction the biotinylated peptide biotin-Ahx-EPKDDAYPLYSDFG (C-terminus in amid form) was used which can be purchased e.g. from the company Biosynthan GmbH (Berlin-Buch, Germany).
For activation, Tie2 was incubated at a conc. 12.5 ng/μl of for 20 min at 22° C. in the presence of 250 μM adenosine-tri-phosphate (ATP) in assay buffer [50 mM Hepes/NaOH pH 7, 10 mM MgCl2, 0.5 mM MnCl2, 1.0 mM dithiothreitol, 0.01% NP40, protease inhibitor mixture (“Complete w/o EDTA” from Roche, 1 tablet per 2.5 ml)].
For the subsequent kinase reaction, the preactivated Tie2 (0.5 ng/measurement point) was incubated for 20 min at 22° C. in the presence of 10 μM adenosine-tri-phosphate (ATP) and 1 μM substrate peptide (biotin-Ahx-EPKDDAYPLYSDFG-NH2) with different concentrations of test compounds (0 μM and concentrations in the range 0.001-20 μM) in 5 μl assay buffer [50 mM Hepes/NaOH pH 7, 10 mM MgCl2, 0.5 mM MnCl2, 0.1 mM sodium ortho-vanadate, 1.0 mM dithiothreitol, 0.01% NP40, protease inhibitor mixture (“Complete w/o EDTA” from Roche, 1 tablet per 2.5 ml), 1% (v/v) dimethylsulfoxide]. The reaction was stopped by the addition of 5 μl of an aqueous buffer (25 mM Hepes/NaOH pH 7.5, 0.28% (w/v) bovine serum albumin) containing EDTA (90 mM) and the HTRF (Homogeneous Time Resolved Fluorescence) detection reagents streptavidine-XLent (0.2 μM, from Cis Biointernational, Marcoule, France) and PT66-Eu-Chelate (0.3 ng/μl; a europium-chelate labelled anti-phospho-tyrosine antibody from Perkin Elmer).
as §1

[3] = target: T3, CDK2/CycE (Homo sapiens, UniProt P24941); assay: CDK2 HTRF Assay (assay 4); details: 10 μM ATP, pIC50 = −log IC50 in molar concentration
T3 construct: GST; purchased ProQinase GmbH (Freiburg, Germany); host or cells: insect cells (Sf9)
From the text: CDK2/CycE-inhibitory activity of compounds of the present invention was quantified employing the CDK2/CycE HTRF assay as described in the following paragraphs.
Recombinant fusion proteins of GST and human CDK2 and of GST and human CycE, expressed in insect cells (Sf9) and purified by Glutathion-Sepharose affinity chromatography, were purchase from ProQinase GmbH (Freiburg, Germany). As substrate for the kinase reaction biotinylated peptide biotin-Ttds-YISPLKSPYKISEG (C-terminus in amid form) was used which can be purchased e.g. form the company JERINI peptide technologies (Berlin, Germany).
CDK2/CycE was incubated for 60 min at 22° C. in the presence of different concentrations of test compounds in 5 μl assay buffer [50 mM Tris/HCl pH 8.0, 10 mM MgCl2, 1.0 mM dithiothreitol, 0.1 mM sodium ortho-vanadate, 10 μM adenosine-tri-phosphate (ATP), 0.75 μM substrate, 0.01% (v/v) Nonidet-P40 (Sigma), 1% (v/v) dimethylsulfoxide]. The concentration of CDK2/CycE was adjusted depending of the activity of the enzyme lot and was chosen appropriate to have the assay in the linear range, typical concentrations were in the range of 1 ng/ml. The reaction was stopped by the addition of 5 μl of a solution of HTRF detection reagents (0.2 μM streptavidine-XLent and 3.4 nM Phospho-(Ser) CDKs Substrate Antibody [product #2324B, Cell Signalling Technology, Danvers, Mass., USA} and 4 nM Prot-A-EuK [Protein A labeled with Europium Cryptate from Cis biointernational, France, product no. 61PRAKLB]) in an aqueous EDTA-solution (100 mM EDTA, 800 mM KF, 0.2% (w/v) bovine serum albumin in 100 mM HEPES/NaOH pH 7.0).

T1 sequence (Q02763 770-1124 limits assumed): as above

IC50 [1] [nM]	IC50 [2] [nM]	IC50 [3] [nM]	Compound
< 100	< 100	> 10000	COc1nc(Nc2cccc(S(C)(=N)=O)c2)ncc1-c1ccc(NC(=O)Nc2cc(C(F)(F)F)ccc2F)c(F)c1 (racemic) [Example 45, 1-[2-Fluoro-4-(4-methoxy-2-{[3-(RS)-(S-methylsulfon-imidoyl)phenyl]-amino}pyrimidin-5-yl)phenyl]-3-[2-fluoro-5-(trifluoromethyl)phenyl]urea]
100 to 1000	100 to 1000	> 10000	COc1nc(Nc2cccc(S(C)(=N)=O)c2)ncc1-c1ccc(NS(=O)(=O)c2cccc(Cl)c2Cl)c(F)c1 (racemic) [Example 46, 2,3-Dichloro-N-[2-fluoro-4-(4-methoxy-2-{[3-(RS)-(S-methylsulfonimidoyl)phenyl]amino}pyrimi-din-5-yl)phenyl]benzenesul-fonamide]
< 100	< 100	> 10000	CNc1nc(Nc2cccc(S(C)(=N)=O)c2)ncc1-c1ccc(NC(=O)Nc2cc(C(F)(F)F)ccc2F)c(F)c1 (racemic) [Example 49, 1-{2-Fluoro-4-[4-(methylamino)-2-{[3-(RS)-(S-methylsulfonimidoyl)phenyl]amino}-pyrimidin-5-yl]phenyl}-3-[2-fluoro-5-(trifluoromethyl)-phenyl]urea]

From US8003655B2, “Substituted sulphoximines as TIE2 inhibitors and salts thereof, pharmaceutical compositions comprising same, methods of preparing same and uses of same” (Bayer Schering Pharma AG, priority 2006, dated 2011)
